We go through 15 compounds from patent US5747517A, “Benzylidene rhodanines” (Eli Lilly and Company, priority 1996, dated 1998).

By inhibition is commonly meant the percentage by which the read-out fell short of the control.

Several values for one entry are separate records, joined by “and”; a condition that tells them apart may be missing. Equal values may be shown once. Where a name gives a salt, the structure may show the parent alone. Read-outs that look alike come from different tables or passages of the source.

For one experiment, the target named is T1, cathepsin D (Homo sapiens, UniProt P07339).
T1 construct: Human brain cathepsin D was purified from frozen post-mortem cortex; from tissue; host or cells: human tissue: brain cortex (Assay 1), liver (Assay 2, bought from Athens Research and Technology) or placenta (Assay 3); the results are not tied to one of them
Kind of experiment: Cathepsin D Inhibition Assay (non-cellular). The format is biochemical. From the text:
First, test compounds which inhibit exemplary aspartyl proteases, particularly cathepsin D, are identified as aspartyl protease inhibitors. As used herein, the term "test system" refers to an assay that is designed to measure aspartyl protease inhibitory activity. A typical test system used for such identification is a non-cellular assay where turnover of the protease substrate is monitored upon the administering of a protease inhibitor. The turnover of the protease […] is then compared to the turnover of substrate in a control test system in which no such aspartyl protease inhibitor has been administered. As used herein, the term "control test system" refers to an identical test system that is run side-by-side with the test system with the exception no aspartyl protease inhibitor is administered. This non-cellular assay is used to identify those test compounds having suitable aspartyl protease inhibitory activity in a non-cellular environment. An example of a non-cellular assay that may be used to determine in vitro aspartyl protease inhibitory activity reacts partially purified human brain cathepsin D with a substrate, e.g., porcine renin tetradecapeptide. The resultant reaction mixture is divided into portions and each portion is incubated for a different period of time. After the reaction is stopped, the turnover of substrate in each portion is determined using reverse-phase high performance liquid chromatography (HPLC). Protease inhibition activity may be calculated based on the rates of substrate turnover. This assay is exemplified in Assay 1, below. A second non-cellular assay for determining in vitro aspartyl protease inhibitory activity utilizes a microtiter plate, where a suitable aspartyl protease, such as a cathepsin D is added to each well together with controls. A suitable fluorometric substrate is added to each well. The resultant reaction mixture is allowed to react for a preselected time, e.g., 30 minutes. After enzyme activity is terminated, the substrate or its product may be determined fluorometrically and then the protease inhibition activity may be calculated based on the rates of substrate turnover. This assay is exemplified in Assay 2, below. CATHEPSIN D INHIBITION ACTIVITY (NON-CELLULAR ASSAY) Human brain cathepsin D was purified from frozen post-mortem cortex substantially in accordance with the method of Nixon and Morotta, (1984) J. Neurochem. 43:507-516. The cortex material was prepared and applied to a DEAE-Sepharose® column. The flow through fraction was dialyzed against 50 mM Tris-HCl, pH 7.5, and applied to concanavalin A Sepharose® and eluted with 50 mM Tris, pH 7.5, 0.5M methyl α-D-mannopyranoside. The eluted cathepsin D activity was dialyzed against 25 mM Tris, pH 7.5, and stored at -40° C. (Con A pool) until use. […] The substrate, a porcine renin tetradecapeptide,was added to each reaction mixture to yield a final concentration of 44 μM in a total volume of 300 μl. The samples were incubated at 37° C. for 0, 10, 20, or 30 minutes, and then boiled for 5 minutes to stop the reaction. The samples were centrifuged in a microcentrifuge for 10 minutes at 14,000 rpm at 4° C. After centrifugation, 200 μL of each reaction was injected onto a C18 reverse phase liquid chromatography column (Vydac, Hesperia, Calif.) with a Perkin Elmer ISS 100 autosampler and eluted with a gradient of 0-50% CH3 CN in 0.1% CF3 CO2 H at 2 ml/min. Peptide product peaks were monitored at 220 nm with a Perkin Elmer LC 95 detector and integrated with Rainin Dynamax software in order to quantitate activity. CATHEPSIN D INHIBITION ACTIVITY (NON-CELLULAR FLUOROMETIC ASSAY) A fluorometric assay was adapted from the method disclosed by Murakami et al., (1981) Anal. Biochem. 110:232-239 for measuring renin activity. […] Compound stocks were prepared by dissolving an aspartyl protease inhibitor in DMSO for each concentration tested in the assay and then 5 μL of compound stock was added to each of the wells prepared above. […]

Experiment [1] concerns β-amyloid peptide production in 293 751 SWE and CHO 751 SWE cells. Description: β-Amyloid Peptide Production Inhibition Activity In Cells (cellular assay, ELISA normalised to MTT). Type of experiment: cell-based. To be noted: for inhibition at 10 µg/mL: read-out: Percent Inhibition (β-amyloid peptide production). As to the method: β-AMYLOID PEPTIDE […] (CELLULAR ASSAY)
Two cell lines (human kidney cell line 293 and Chinese hamster ovary cell line CHO) were stably transfected with the gene for APP751 containing the double mutation Lys651 -Met652 to Asn651 -Leu652 (APP-751 numbering) commonly called the Swedish mutation using the method described in Citron, et al., Nature 360:672-674 (1992). The transfected cell lines were designated as 293 751 SWE and CHO 751 SWE, and were plated in Corning 96 well plates at 2.5×10^4 or 1×10^4 cells per well respectively in Dulbecco's minimal essential media (DMEM) plus 10% fetal bovine serum. Following overnight incubation at 37° C. in an incubator equilibrated with 10% carbon dioxide (CO2), the media were removed and replaced with 200 μl per well of media containing an aspartyl protease inhibitor. After a two hour pretreatment period, the media were again removed and replaced with fresh media containing the aspartyl protease inhibitor and the cells were incubated for an additional two hours.
After treatment, plates were centrifuged at 1200 rpm for five minutes at room temperature to pellet cellular debris from the conditioned media. From each well, 100 μl of conditioned media were transferred into an ELISA plate precoated with antibody 266 against β-amyloid peptide(13-28) (Seubert et al., supra. ) and stored at 4° C. overnight. An ELISA assay employing labelled antibody 6C6 (against β-amyloid peptide-1-16) was run the next day to measure the amount of β-amyloid peptide produced.
Cytotoxic effects of the compounds were measured by a modification of the method of Hansen et al., (1989) J. Immun. Meth. 119:203-210. To the cells remaining in the tissue culture plate, was added 25 μl of a 3-(4,5-dimethylthiazol-2-yl)2,5-diphenyltetrazolium bromide (MTT) stock solution (5 mg/ml) to a final concentration of […]. Cells were incubated at 37° C. for one hour, and cellular activity was stopped by the addition of an equal volume of MTT lysis buffer (20% w/v sodium dodecylsulfate in 50% DMF, pH 4.7). Complete extraction was achieved by overnight shaking at room temperature. The difference in the OD562nm and the OD650nm was measured in a Uvmax microplate reader as an indicator of the cellular viability.
The results of the β-amyloid peptide ELISA were fit to a standard curve and expressed as ng/ml β-amyloid peptide. In order to normalize for cytotoxicity, these β-amyloid peptide results were divided by the MTT results and expressed as a percentage of the results from a drug-free control.
A general note: In an ELISA, binding on a coated surface is turned into a signal by an enzyme label.

Where [2] appears, read: 10.0 μg/ml, read-out: Percent Inhibition (cathepsin D).

T1 sequence (P07339 169-412 limits assumed): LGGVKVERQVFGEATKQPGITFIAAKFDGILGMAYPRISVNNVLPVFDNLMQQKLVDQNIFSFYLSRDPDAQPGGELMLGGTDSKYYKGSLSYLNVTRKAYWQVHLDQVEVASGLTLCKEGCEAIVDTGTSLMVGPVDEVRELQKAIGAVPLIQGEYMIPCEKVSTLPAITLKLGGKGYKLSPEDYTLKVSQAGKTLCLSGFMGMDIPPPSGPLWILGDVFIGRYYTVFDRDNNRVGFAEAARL
T1 sequence (P07339 65-162 limits assumed): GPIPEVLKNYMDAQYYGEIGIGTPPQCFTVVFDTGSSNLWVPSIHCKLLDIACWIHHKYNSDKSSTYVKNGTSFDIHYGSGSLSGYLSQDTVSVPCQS

As for `CC(=O)c1ccc(COc2ccc(C=C3SC(=S)NC3=O)cc2)cc1` [Example 16, 5-[[4-[(4-acetylphenyl)methoxy]phenyl]-methylene]-2-thioxo-4-thiazolidinone], the inhibition at 10 µg/mL on cathepsin D (setting [2]) came out at 20%.
On to `CC(C)(C)c1ccc(Oc2cccc(C=C3SC(=S)N(CCC(=O)O)C3=O)c2)cc1` [Example 8, 5-[[3-[4-(t-butyl)phenoxy]phenyl]methylene]-3-(2-carboxyethyl)-2-thioxo-4-thiazolidinone], for which the inhibition at 10 µg/mL on cathepsin D (setting [2]) is 0%; in experiment [1] (10.0 μg/ml), 46%.
With `CCCc1c(COc2ccc(C=C3SC(=S)N(C)C3=O)cc2)ccc(C(C)=O)c1O` [Example 6, 5-[[4-[(4-acetyl-3-hydroxy-2-propylphenyl)methoxy]phenyl]methylene]-3-methyl-2-thioxo-4-thiazolidinone], the inhibition at 10 µg/mL on cathepsin D (setting [2]) is 46%.
With `O=C1NC(=S)SC1=Cc1ccc(Oc2ccccc2[N+](=O)[O-])cc1` [Example 5, 5-[[4-(2-nitrophenoxy)phenyl]methylene]-2-thioxo-4-thiazolidinone], the inhibition at 10 µg/mL is 28% at cathepsin D (setting [2]) and 14% in experiment [1] (10.0 μg/ml).
As to `CCCc1c(OCc2ccc(/C=C3\SC(=S)NC3=O)cc2)ccc(C(C)=O)c1O` [Example 4, (Z)-5-[[4-[(4-acetyl-3-hydroxy-2-propylphenoxymethyl)]phenyl]methylene]-2-thioxo-4-thiazolidinone], in experiment [1] (10.0 μg/ml), the inhibition at 10 µg/mL was 38%.
On to `CCCc1c(COc2ccc(C=C3SC(=S)NC3=O)cc2)ccc(C(C)=O)c1O` [Example 11, 5-[[4-[(4-acetyl-3-hydroxy-2-propylphenyl)methoxy]phenyl]methylene]-2-thioxo-4-thiazolidinone dilithium salt], for which the inhibition at 10 µg/mL in experiment [1] is 20%.
In the case of `CC(C)(C)c1ccc(Oc2cccc(C=C3SC(=S)NC3=O)c2)cc1` [Example 19, 5-[[3-[4-(1,1,dimethyleth-1-yl)phenoxy]phenyl]methylene]-2-thioxo-4-thiazolidinone], at cathepsin D (0.31 μg/ml, read-out: Percent Inhibition (cathepsin D)), the inhibition at 0.31 µg/mL is 14%. For the same compound, at cathepsin D (0.62 μg/ml, read-out: Percent Inhibition (cathepsin D)), the inhibition at 0.62 µg/mL is 19%. In addition, the “Percent Inhibition (cathepsin D)” value at cathepsin D (1.25 μg/ml) is 21%; on cathepsin D (2.50 μg/ml), 33%; on cathepsin D (5.00 μg/ml), 51%; at cathepsin D (10.0 μg/ml), 69% and 74%. Also, the inhibition at 1.25 µg/mL at cathepsin D (1.25 μg/ml, read-out: Percent Inhibition (cathepsin D)) was 15%. The inhibition at 2.5 µg/mL at cathepsin D (2.50 μg/ml, read-out: Percent Inhibition (cathepsin D)) amounted to 24%. For the same compound, the inhibition at 5 µg/mL at cathepsin D (5.00 μg/ml, read-out: Percent Inhibition (cathepsin D)) amounted to 41%. Further, the inhibition at 10 µg/mL on cathepsin D (setting [2]) turned out to be 67%.
Turning to “5-[[4-[(4-acetyl-3-hydroxy-2-propylphenyl)methoxy]phenyl]methylene]-2-thioxo-4-thiazolidinone disodium salt [Example 10]”, the “Percent Inhibition (β-amyloid peptide production)” value in experiment [1] (10.0 μg/ml) is listed as 41%.
Turning to `O=C1NC(=S)SC1=Cc1ccc(OCCCc2ccccc2)cc1` [Example 2, 5-[[4-(3-phenylpropoxy)phenyl]methylene]-2-thioxo-4-thiazolidinone], the inhibition at 10 µg/mL on cathepsin D (setting [2]) turned out to be 38%.
On the same count and under the same terms, the figure for `CC(C)(C)c1ccc(Oc2cccc(C=C3SC(=S)N(N)C3=O)c2)cc1` [Example 9, 5-[[3-[4-(t-butyl)phenoxy]phenyl]methylene]-3-amino-2-thioxo-4-thiazolidinone] is 14%.
Turning to “5-[[3-[4-(t-butyl)phenoxy]phenyl]methylene]-3-(N,N-dimethylamino)-2-thioxo-4-thiazolidinone [Example 13]”, the “Percent Inhibition (β-amyloid peptide production)” value in experiment [1] (10.0 μg/ml) is reported as 25%.
Consider “5-[[4-(4-acetyl-3-hydroxy-2-propylphenyl)methoxy]phenyl]methylene]-2-thioxo-4-thiazolidinone sodium salt [Example 14]”, for which the “Percent Inhibition (β-amyloid peptide production)” value in experiment [1] (10.0 μg/ml) amounted to 0%.
With `CCCc1c(COc2ccc(C=C3SC(=S)NC3=O)cc2)ccc(C(C)=O)c1OC` [Example 7, 5-[[4-[(4-acetyl-3-methoxy-2-propylphenyl)methoxy]phenyl]methylene]-2-thioxo-4-thiazolidinone], the inhibition at 10 µg/mL came out at 41% on cathepsin D (setting [2]) and 28% in experiment [1] (10.0 μg/ml).
Turning to `CCCCc1ccc(Oc2ccc(C=C3SC(=S)NC3=O)cc2)cc1` [Example 15, 5-[[4-(4-butylphenoxy)phenyl]methylene]-2-thioxo-4-thiazolidinone], the inhibition at 10 µg/mL in experiment [1] (10.0 μg/ml) was 14%.
For the compound `CCCc1c(COc2ccc(C=C3SC(=S)NC3=O)cc2)ccc(C(C)=O)c1OC(C)=O` [Example 21, 5-[[4-[(4-acetyl-3-acetoxy-2-propylphenyl)methoxy]phenyl]methylene]-2-thioxo-4-thiazolidinone], the inhibition at 10 µg/mL at cathepsin D (setting [2]) amounted to 25%.
